This note sets out measurements from article PMC4981310 (PLoS Pathogens, 2016).

For test [1], the target named is T1, GlgA (Mycobacterium tuberculosis, UniProt P9WMZ1).
T1 construct: gene glgM
The class given is biochemical.

Another test addresses GlgP (Mycobacterium tuberculosis, UniProt P9WMW1). It counts as biochemical.
For test [2], the target named is T1, GlgA. Kind of test: biochemical.
In test [3] the target is T1, GlgA. The class given is biochemical. This is another data set of the same source.

As to `Nc1ncnc2c1ncn2[C@@H]1O[C@H](COP(=O)(O)OP(=O)(O)O)[C@@H](O)[C@H]1O` [ADP], on GlgA [1], the “MS of reaction products; coupled assay of ADP release” value was “The next most abundant ion is consistent with the presence of the co-product, ADP”.

As to `O=P(O)(O)O[C@H]1O[C@H](CO)[C@@H](O)[C@H](O)[C@H]1O` [G1P, glucose 1-phosphate], the “1H NMR of glycogen phosphorolysis by recombinant enzyme” value at GlgP is “recombinant M. tuberculosis GlgP was only capable of forming G1P from glycogen and inorganic phosphate”. On GlgA [2], this molecule registered a Ki of 895 ± 60 µM. Take `O=P(O)(O)O[C@H]1O[C@H](CO)[C@@H](O[C@H]2O[C@H](CO)[C@@H](O)[C@H](O)[C@H]2O)[C@H](O)[C@H]1O` [M1P, α-maltose 1-phosphate]: the “1H NMR and high resolution MS of the enzyme reaction product” value at GlgA [3] is “Recombinant M. tuberculosis GlgA converts ADP-glucose and G1P to M1P”.
